# Measurements published in patent US11458180B2, “Environmentally-friendly preparation method of composition containing anti-inflammatory active ingredients and use of composition” (SHANGHAI JAKA BIOTECH CO., LTD., priority 2019, dated 2022).
# Tested on: PGE-2
# Assay: Anti-inflammatory effect: LPS-induced PGE-2 expression by ELISA
# Assay type: cell-based, mouse
# Details: LPS 1 μg/ml stimulated Raw 264.7 cells, 10 μM, relative to LPS group
# Protocol: In this experiment, Raw 264.7 cells were stimulated by LPS, then cell culture was collected, and the expression of the inflammatory factor PGE-2 was determined by enzyme-linked immunosorbent assay (ELISA). The compositions obtained in the examples and comparative examples were compared in terms of the influence on anti-inflammatory effects. Raw264.7 cells and LPS were used for the experiment.
# Raw264.7 cells at logarithmic growth phase were collected as follows: culture medium was discarded, and the cells were washed twice with PBS, added with 0.25% trypsin, and placed at 37° C. for 5 min; digestion was terminated with DMEM complete culture medium including 10% FBS and 1% PS, and a resulting solution was centrifuged at 1,000 rpm for 3 min; and a resulting supernatant was discarded, and obtained cells were resuspended in complete culture medium and counted. A cell concentration was adjusted to 5×10^5 cells/ml, and a resulting cell suspension was added to a 96-well plate at 100 µl/well. […]
# After the treatment, cell culture was collected to a new 96-well plate, and the expression of PGE-2 was determined by ELISA according to instructions of a kit. A PGE-2 content (E) was calculated according to a standard curve, and relative to the LPS group, a relative inhibition rate was calculated for each sample (inhibition rate (%)=(1-Etest substance group/ELPS group)×100).
smiles,measurement,value
"C[C@@H]1C[C@H]2[C@@H]3CCC4=CC(=O)C=C[C@]4(C)[C@@]3(F)[C@@H](O)C[C@]2(C)[C@@]1(O)C(=O)CO [Dex, dexamethasone]",inhibition rate of PGE-2 expression,75.27%
